Here are results for 14 compounds from patent US5342771A, “Functionalized imidazolinone haptens and protein conjugates thereof useful in assays for the detection of imidazolinone herbicides” (American Cyanamid Company, priority 1993, dated 1994).

The target in this experiment is antibody. As to the kind of experiment: Cross-reactivity of the antibody by ELISA (competitive binding with enzyme conjugate). More on the design: species or system New Zealand white rabbits. Particulars: concentration giving 50% reduction of absorbance caused by enzyme conjugate binding to a known amount of antibody. As to the method:
The antigen produced in example 2 is dissolved into 0.1M sodium phosphate buffer solution containing 0.14% sodium chloride at pH 7.6 (PBS 7.6). One milliliter of the antigen solution, 0.5 mg antigen per milliliter, is mixed with one milliliter of Freund's complete adjuvant and emulsified. The emulsion is injected peri-lymph nodal into New Zealand white rabbits at 0.5 mg/rabbit. Three weeks after the initial immunization, 0.25 mg of the antigen in 1 mL of PBS 7.6 is emulsified with 1 mL of Freund's incomplete adjuvant and injected into the rabbits intramuscularly as boosters. The booster injections are introduced every three weeks into the rabbits. After the second boost, blood samples are collected through the ear vein ten days post injection. Serum containing the antibody is harvested from the blood samples and stored.
The antibody and enzyme conjugate prepared above are used to establish an ELISA method for the determination of the presence and concentration of imidazolinones in soil, water or plant samples. A Costar 96 well polystyrene EIA treated flat bottom microwell plate is coated with a constant amount of the antibody in a 0.1N Na2 CO3 buffer. The antibody coated wells are incubated overnight at 4° C., washed with PBS 7.6 buffer containing 0.01% TWEEN® 20, blocked with 5% milk (nonfat dry milk) in PBS 7.6 and incubated 30 minutes at room temperature. Standard solutions having concentrations of imazaquin from 0 to 25 ng per mL are added to the blocked wells followed by the addition of the aforementioned enzyme conjugate.
The wells are incubated for thirty minutes, washed and then a freshly prepared tetramethylbenzidine/hydrogen peroxide substrate solution is added to each well. After ten minutes, readings are taken for each well at 650 nm using a microwell reader.
The cross reactivity of the antibody with imidazolinone compounds, imidazolinone metabolites and other commonly found agrochemicals is determined using the procedure of example 5. The concentration of a compound which produces a 50% reduction of absorbance caused by the enzyme conjugate binding to a known amount of antibody is defined as the I50 value (50% inhibition concentration). The I50 values from the cross-reactivity studies are in Table III.
In general terms: In an ELISA, binding on a coated surface is turned into a signal by an enzyme label.

Take `CC(C)C(C)(NC(=O)c1cc2ccccc2nc1C(=O)O)C(N)=O` (centres unmarked) [3-[(1-Carbamoyl-1,2-dimethylpropyl)carbamoyl]quinaldic acid]: the “I50 (50% inhibition concentration)” value is > 5,000 ng/mL. Consider `CC(C)C(C)(NC(=O)c1nc2ccccc2cc1C(=O)O)C(N)=O` (centres unmarked) [2-[(1-Carbamoyl-1,2-dimethylpropyl)carbamoyl]-3-quinolinecarboxylic acid], for which the “I50 (50% inhibition concentration)” value is listed as > 5,000 ng/mL. On to `CC(C)C1(C)N=C(c2nc3ccccc3cc2C(=O)O)NC1=O` (centres unmarked) [Imazaquin, 2-(4-isopropyl-4-methyl-5-oxo-2-imidazolin-2-yl)-3-quinolinecarboxylic acid], for which the “I50 (50% inhibition concentration)” value is 10.7 ng/mL. As for `COC(=O)c1nc2ccccc2cc1C(=O)NC(C)(C(N)=O)C(C)C` (centres unmarked) [Methyl 3-[(1-carbamoyl-1,2-dimethylpropyl)carbamoyl]-2-quinolinecarboxylate], the “I50 (50% inhibition concentration)” value is given as > 5,000 ng/mL. For `CCNc1nc(Cl)nc(NC(C)C)n1` [Atrazine], the “I50 (50% inhibition concentration)” value is > 100,000 ng/mL. On to `C[n+]1ccc(-c2cc[n+](C)cc2)cc1` [Paraquat], for which the “I50 (50% inhibition concentration)” value is recorded as > 100,000 ng/mL. `CCc1cccc(CC)c1N(COC)C(=O)CCl` [Alachlor]: the “I50 (50% inhibition concentration)” value is given as > 100,000 ng/mL. Under `CC(C)C1(C)N=C(c2ncccc2C(=O)O)NC1=O` (centres unmarked) [Imazapyr, 2-(4-isopropyl-4-methyl-5-oxo-2-imidazolin-2-yl)nicotinic acid] stands 149.0 ng/mL; under `CCc1cnc(C2=NC(C)(C(C)C)C(=O)N2)c(C(=O)O)c1` (centres unmarked) [Imazethapyr, 5-ethyl-2-(4-isopropyl-4-methyl-5-oxo-2-imidazolin-2-yl)nicotinic acid], 18.5 ng/mL.

Turning to `CCC(CC)Nc1c([N+](=O)[O-])cc(C)c(C)c1[N+](=O)[O-]` [Pendimethalin], the “I50 (50% inhibition concentration)” value was > 100,000 ng/mL.

As for “mixture of methyl 6-(4-isopropyl-4-methyl-5-oxo-2-imidazolin-2-yl)-m-toluate and methyl 2-(4-isopropyl-4-methyl-5-oxo-2-imidazolin-2-yl)-p-toluate [Imazamethabenz]”, the “I50 (50% inhibition concentration)” value turned out to be 33.2 ng/mL.

For `CC(C)C(C)(C(N)=O)N1C(=O)c2cc3ccccc3nc2C1=O` (stereo not drawn) [1,3-Dihydro-α-isopropyl-α-methyl-1,3-dioxo-2 --H-pyrrolo[3,4- -b]quinoline-2-acetamide], the “I50 (50% inhibition concentration)” value is given as > 5,000 ng/mL. Under `CCCCOCN(C(=O)CCl)c1c(CC)cccc1CC` [Butachlor] stands > 100,000 ng/mL; under `COc1nc(C)nc(NC(=O)NS(=O)(=O)c2ccccc2Cl)n1` [Chlorsulfuron], > 100,000 ng/mL.
